The source made the active and inactive calls. The calls are words filed in the database; no cut-off is given here.
Experiments:
A549 = test: Antiproliferative activity against human A549 cells harbouring wild type EGFR incubated for 72 hrs by SRB assay; format: functional, cell-based; settings: A549, 72 h
MDA-MB-231 = test: Antiproliferative activity against human MDA-MB-231 cells incubated for 72 hrs by SRB assay; format: functional, cell-based; settings: MDA-MB-231, 72 h
KB = test: Antiproliferative activity against human KB cells incubated for 72 hrs by SRB assay; format: functional, cell-based
[1] = Antiproliferative activity against human KB-VIN10 cells incubated for 72 hrs by SRB assay; format: functional, cell-based; settings: KB-VIN10, 72 h
MCF7 = test: Antiproliferative activity against human MCF7 cells incubated for 72 hrs by SRB assay; format: functional, cell-based; settings: MCF7, 72 h
NCI-H1975 [2] = test: Antiproliferative activity against human NCI-H1975 cells assessed as induction of NO production at 100 uM incubated for 150 mins by Griess reagent based assay; format: functional, cell-based
NCI-H1975 [3] = test: Antiproliferative activity against human NCI-H1975 cells incubated for 72 hrs by MTS assay; format: functional, cell-based; settings: NCI-H1975, 72 h
NCI-H1975 [4] = test: cells; format: functional, cell-based; settings: Homo sapiens, NCI-H1975, 72 h
[5] = molecular target: Epidermal growth factor receptor (Homo sapiens, UniProt P00533); test: biochemical; format: cell-based, Sf9
Chain of Epidermal growth factor receptor (Homo sapiens, UniProt P00533) (P00533 whole entry): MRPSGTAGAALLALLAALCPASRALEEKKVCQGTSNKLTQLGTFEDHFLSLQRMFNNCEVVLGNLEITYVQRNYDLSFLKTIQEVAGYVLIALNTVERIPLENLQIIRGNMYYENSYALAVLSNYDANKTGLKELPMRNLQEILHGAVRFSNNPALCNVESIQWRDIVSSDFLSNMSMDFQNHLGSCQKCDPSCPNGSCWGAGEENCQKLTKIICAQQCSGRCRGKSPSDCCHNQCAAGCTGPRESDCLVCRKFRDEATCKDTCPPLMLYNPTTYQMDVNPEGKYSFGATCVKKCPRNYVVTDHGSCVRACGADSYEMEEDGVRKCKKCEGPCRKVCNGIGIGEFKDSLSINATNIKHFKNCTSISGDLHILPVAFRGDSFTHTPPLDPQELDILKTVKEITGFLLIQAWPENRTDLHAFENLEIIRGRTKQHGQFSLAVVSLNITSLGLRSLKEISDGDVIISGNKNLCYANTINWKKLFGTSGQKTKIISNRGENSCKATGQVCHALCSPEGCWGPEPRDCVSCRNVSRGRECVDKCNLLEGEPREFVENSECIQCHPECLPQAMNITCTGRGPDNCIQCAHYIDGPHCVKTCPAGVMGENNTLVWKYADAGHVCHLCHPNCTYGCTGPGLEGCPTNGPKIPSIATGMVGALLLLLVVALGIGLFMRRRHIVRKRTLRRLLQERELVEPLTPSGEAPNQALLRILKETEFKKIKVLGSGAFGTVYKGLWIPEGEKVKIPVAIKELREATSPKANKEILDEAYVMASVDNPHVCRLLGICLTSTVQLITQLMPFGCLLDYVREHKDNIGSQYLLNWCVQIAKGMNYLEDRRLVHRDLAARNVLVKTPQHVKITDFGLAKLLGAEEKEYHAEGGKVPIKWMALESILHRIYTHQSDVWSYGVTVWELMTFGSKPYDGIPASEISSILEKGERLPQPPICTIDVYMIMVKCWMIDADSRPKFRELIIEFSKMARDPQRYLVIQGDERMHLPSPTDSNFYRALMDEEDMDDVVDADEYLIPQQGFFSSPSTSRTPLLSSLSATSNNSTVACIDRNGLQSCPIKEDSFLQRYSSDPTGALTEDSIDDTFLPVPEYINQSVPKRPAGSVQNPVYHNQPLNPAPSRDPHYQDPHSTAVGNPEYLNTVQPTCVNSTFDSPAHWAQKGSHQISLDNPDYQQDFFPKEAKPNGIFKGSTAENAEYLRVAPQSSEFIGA
Description: Inhibition of C-terminal His-tagged/ N-terminal GST-tagged recombinant human EGFR (668 to 1210 residues) expressed in a Baculovirus infected Sf9 cell expression system using poly-EY as substrate incubated for 30 mins by ADP-Glo kinase assay

[6] = molecular target: Epidermal growth factor receptor (Homo sapiens, UniProt P00533, L858R/T790M); test: biochemical; format: cell-based, Sf9
Chain of Epidermal growth factor receptor (Homo sapiens, UniProt P00533, L858R/T790M) (P00533 25-1210 T790M/L858R limits assumed): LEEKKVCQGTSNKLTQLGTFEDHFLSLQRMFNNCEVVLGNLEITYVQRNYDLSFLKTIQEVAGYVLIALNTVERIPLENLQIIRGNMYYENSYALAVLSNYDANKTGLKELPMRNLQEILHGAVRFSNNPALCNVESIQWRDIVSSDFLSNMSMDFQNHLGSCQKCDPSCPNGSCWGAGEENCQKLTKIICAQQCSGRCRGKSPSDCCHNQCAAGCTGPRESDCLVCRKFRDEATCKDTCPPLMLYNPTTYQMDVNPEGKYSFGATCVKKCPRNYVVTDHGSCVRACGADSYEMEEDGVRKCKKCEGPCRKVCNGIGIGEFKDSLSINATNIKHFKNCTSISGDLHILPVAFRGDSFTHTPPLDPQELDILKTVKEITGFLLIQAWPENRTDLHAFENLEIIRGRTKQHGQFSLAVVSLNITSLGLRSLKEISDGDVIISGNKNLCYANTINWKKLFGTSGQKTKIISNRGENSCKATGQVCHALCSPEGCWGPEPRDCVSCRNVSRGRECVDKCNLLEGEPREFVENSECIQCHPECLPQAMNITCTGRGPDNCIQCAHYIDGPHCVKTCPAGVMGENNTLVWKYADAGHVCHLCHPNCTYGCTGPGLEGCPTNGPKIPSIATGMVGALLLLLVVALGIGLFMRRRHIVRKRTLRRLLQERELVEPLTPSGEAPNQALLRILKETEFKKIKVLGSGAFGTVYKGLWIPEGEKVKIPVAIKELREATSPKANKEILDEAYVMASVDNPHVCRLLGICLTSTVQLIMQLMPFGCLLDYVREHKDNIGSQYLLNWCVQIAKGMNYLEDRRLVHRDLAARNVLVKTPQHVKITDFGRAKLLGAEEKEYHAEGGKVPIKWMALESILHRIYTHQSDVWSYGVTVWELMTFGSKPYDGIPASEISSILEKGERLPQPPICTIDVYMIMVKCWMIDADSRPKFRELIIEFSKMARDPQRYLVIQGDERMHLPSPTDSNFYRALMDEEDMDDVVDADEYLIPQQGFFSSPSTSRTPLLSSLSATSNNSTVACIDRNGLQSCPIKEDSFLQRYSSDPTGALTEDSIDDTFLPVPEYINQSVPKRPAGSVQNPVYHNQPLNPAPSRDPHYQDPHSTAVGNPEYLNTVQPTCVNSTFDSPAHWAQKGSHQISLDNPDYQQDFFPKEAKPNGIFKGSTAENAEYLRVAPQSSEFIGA

[7] = molecular target: Epidermal growth factor receptor (Homo sapiens, UniProt P00533, C797S/L858R/T790M); test: biochemical; format: cell-based, Sf9
Chain of Epidermal growth factor receptor (Homo sapiens, UniProt P00533, C797S/L858R/T790M) (P00533 25-1210 T790M/C797S/L858R limits assumed): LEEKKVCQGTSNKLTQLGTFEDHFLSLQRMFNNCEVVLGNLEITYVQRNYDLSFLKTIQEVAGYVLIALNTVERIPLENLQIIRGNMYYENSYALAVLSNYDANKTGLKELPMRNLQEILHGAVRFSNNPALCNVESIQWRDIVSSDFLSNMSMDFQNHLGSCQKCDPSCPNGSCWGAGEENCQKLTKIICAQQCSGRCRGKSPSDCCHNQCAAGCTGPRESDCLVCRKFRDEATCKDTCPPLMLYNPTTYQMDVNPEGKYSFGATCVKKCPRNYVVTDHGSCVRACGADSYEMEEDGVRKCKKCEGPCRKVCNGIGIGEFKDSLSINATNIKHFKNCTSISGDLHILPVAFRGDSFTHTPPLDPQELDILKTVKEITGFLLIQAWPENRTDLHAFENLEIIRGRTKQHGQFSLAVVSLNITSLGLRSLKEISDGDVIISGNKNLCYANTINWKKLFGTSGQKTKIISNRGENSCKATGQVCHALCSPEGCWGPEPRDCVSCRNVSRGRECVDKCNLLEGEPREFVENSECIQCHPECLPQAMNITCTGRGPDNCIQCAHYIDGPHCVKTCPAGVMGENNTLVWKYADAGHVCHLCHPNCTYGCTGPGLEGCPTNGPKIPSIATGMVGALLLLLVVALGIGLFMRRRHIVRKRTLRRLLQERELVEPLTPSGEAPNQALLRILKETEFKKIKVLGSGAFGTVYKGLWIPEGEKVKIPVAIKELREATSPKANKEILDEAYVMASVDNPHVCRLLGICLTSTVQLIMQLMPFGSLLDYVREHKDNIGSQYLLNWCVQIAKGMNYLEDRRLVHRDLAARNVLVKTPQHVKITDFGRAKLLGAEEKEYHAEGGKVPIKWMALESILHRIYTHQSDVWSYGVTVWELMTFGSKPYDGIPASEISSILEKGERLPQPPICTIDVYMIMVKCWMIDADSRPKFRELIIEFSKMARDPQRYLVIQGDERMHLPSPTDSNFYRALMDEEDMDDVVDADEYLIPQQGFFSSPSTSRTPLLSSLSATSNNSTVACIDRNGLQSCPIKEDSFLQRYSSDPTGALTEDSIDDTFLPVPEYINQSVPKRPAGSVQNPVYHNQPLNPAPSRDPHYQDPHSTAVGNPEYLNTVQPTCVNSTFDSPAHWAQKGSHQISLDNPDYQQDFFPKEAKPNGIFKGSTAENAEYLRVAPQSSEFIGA

NCI-H1975 [8] = test: Antiproliferative activity against human NCI-H1975 cells assessed as induction of NO production at 25 uM preincubated for 1 hr with hemoglobin followed by compound addition and measured after 48 hrs by Griess reagent based assay; format: functional, cell-based

Structure (SMILES) | IC50 (A549) [µM] | IC50 (MDA-MB-231) [µM] | IC50 (KB) [µM] | IC50 [1] [µM] | IC50 (MCF7) [µM] | Activity (NCI-H1975 [2]) | IC50 (NCI-H1975 [3]) [µM] | IC50 (NCI-H1975 [4]) [µM] | IC50 [5] [µM] | IC50 [6] [µM] | IC50 [7] [µM] | Activity (NCI-H1975 [8])
CC(=O)O[C@H]1CC[C@]2(C)[C@H]3CC=C4[C@@H]5CC(C)(C)CC[C@]5(C(=O)OCCO[N+](=O)[O-])CC[C@@]4(C)[C@]3(C)CC[C@H]2C1(C)C | 6.3 | 7.9 | 4.9 | > 10 | 6.8 | Active |  |  |  |  |  | 
COc1cc(N2CCC(N3CCN(C)CC3)CC2)ccc1Nc1ncc(Cl)c(Nc2ccccc2P(C)(C)=O)n1 [BRIGATINIB] |  |  |  |  |  |  | 0.62 | 0.64 |  |  |  | 
CC1(C)CC[C@]2(C(=O)OCCCCCCO[N+](=O)[O-])CC[C@]3(C)C(=CC[C@@H]4[C@@]5(C)CC[C@H](O)C(C)(C)[C@@H]5CC[C@]43C)[C@@H]2C1 | > 10 | > 10 | > 10 | > 10 | > 10 |  |  |  |  |  |  | 
CC1(C)CC[C@]2(C(=O)O)CC[C@]3(C)C(=CC[C@@H]4[C@@]5(C)CC[C@H](O)[C@@](C)(CO)[C@@H]5CC[C@]43C)[C@@H]2C1 [HEDERAGENIN] | > 10 | > 10 | > 10 | > 10 | > 10 |  | > 10 | > 10 | > 20 | > 20 | > 20 | 
CC(=O)OC[C@@]1(C)[C@@H]2CC[C@]3(C)[C@H](CC=C4[C@@H]5CC(C)(C)CC[C@]5(C(=O)OCCO[N+](=O)[O-])CC[C@]43C)[C@@]2(C)CC[C@@H]1OC(C)=O | 5.3 | 7.3 | 7 | > 40 | > 10 | Active |  |  |  |  |  | 
CC1(C)CC[C@]2(C(=O)O)CC[C@]3(C)C(=CC[C@@H]4[C@@]5(C)CC[C@H](O)C(C)(C)[C@@H]5CC[C@]43C)[C@@H]2C1 [OLEANOLIC_ACID] | 6.4 | > 10 | > 10 | > 10 | > 10 |  | > 10 | > 10 | > 20 | > 20 | > 20 | 
CC(=O)O[C@H]1CC[C@]2(C)[C@H]3CC=C4[C@@H]5CC(C)(C)CC[C@]5(C(=O)OCCCCO[N+](=O)[O-])CC[C@@]4(C)[C@]3(C)CC[C@H]2C1(C)C | 4.8 | 5.4 | 5.3 | 5.1 | 5.2 | Active | > 10 | > 10 | 0.1 | > 20 | 0.02 | inactive
CC(=O)OC[C@@]1(C)[C@@H]2CC[C@]3(C)[C@H](CC=C4[C@@H]5CC(C)(C)CC[C@]5(C(=O)O)CC[C@]43C)[C@@]2(C)CC[C@@H]1OC(C)=O |  | > 10 |  | 8.5 | > 10 |  |  |  |  |  |  | 
CC1(C)CC[C@]2(C(=O)OCCCCO[N+](=O)[O-])CC[C@]3(C)C(=CC[C@@H]4[C@@]5(C)CC[C@H](OC(=O)c6ccc([N+](=O)[O-])cc6)C(C)(C)[C@@H]5CC[C@]43C)[C@@H]2C1 |  |  |  |  |  |  | > 10 | > 10 | > 20 | > 20 | > 20 | 
CC1(C)CC[C@]2(C(=O)OCCCCO[N+](=O)[O-])CC[C@]3(C)C(=CC[C@@H]4[C@@]5(C)CC[C@H](O)[C@@](C)(CO)[C@@H]5CC[C@]43C)[C@@H]2C1 | 9.3 | > 10 | > 10 | > 10 | 8 | Active | > 10 | > 10 | 0.19 | > 20 | 0.04 | 
CC(=O)OC[C@@]1(C)[C@@H]2CC[C@]3(C)[C@H](CC=C4[C@@H]5CC(C)(C)CC[C@]5(C(=O)OCCCCO[N+](=O)[O-])CC[C@]43C)[C@@]2(C)CC[C@@H]1OC(C)=O | 4.6 | 5.2 | 5.1 | 4.8 | 5 | Active | 8.1 | 7.6 | 0.06 | > 20 | 0.01 | inactive
CC1(C)CC[C@]2(C(=O)OCCCCO[N+](=O)[O-])CC[C@]3(C)C(=CC[C@@H]4[C@@]5(C)CC[C@H](O)C(C)(C)[C@@H]5CC[C@]43C)[C@@H]2C1 | 9.2 | > 10 | > 10 | > 10 | > 10 |  |  |  |  |  |  | 
CC1(C)CC[C@]2(C(=O)OCCO[N+](=O)[O-])CC[C@]3(C)C(=CC[C@@H]4[C@@]5(C)CC[C@H](O)[C@@](C)(CO)[C@@H]5CC[C@]43C)[C@@H]2C1 | > 10 | 9.2 | 9.5 | > 10 | > 10 | Active |  |  |  |  |  | 
CC(=O)O[C@H]1CC[C@]2(C)[C@H]3CC=C4[C@@H]5CC(C)(C)CC[C@]5(C(=O)OCCCCCCO[N+](=O)[O-])CC[C@@]4(C)[C@]3(C)CC[C@H]2C1(C)C | 5 | 5.3 | 5.1 | 7.6 | 6.4 | Active |  |  |  |  |  | 
CC1(C)CC[C@]2(C(=O)OCCCCCCO[N+](=O)[O-])CC[C@]3(C)C(=CC[C@@H]4[C@@]5(C)CC[C@H](O)[C@@](C)(CO)[C@@H]5CC[C@]43C)[C@@H]2C1 | > 10 | > 10 | > 10 | > 40 | > 10 |  |  |  |  |  |  | 
CC1(C)CC[C@]2(C(=O)OCCCCO[N+](=O)[O-])CC[C@]3(C)C(=CC[C@@H]4[C@@]5(C)CC[C@H](OC(=O)c6ccccc6)C(C)(C)[C@@H]5CC[C@]43C)[C@@H]2C1 | > 10 | > 10 | > 10 | > 10 | > 10 |  | > 10 | > 10 | > 20 | > 20 | > 20 | 
CC1(C)CC[C@]2(C(=O)OCCCCO[N+](=O)[O-])CC[C@]3(C)C(=CC[C@@H]4[C@@]5(C)CC[C@H](OCc6ccccc6)C(C)(C)[C@@H]5CC[C@]43C)[C@@H]2C1 | > 10 | > 10 | > 10 | > 10 | > 10 |  | > 10 | > 10 | > 20 | > 20 | > 20 | 
CC(=O)O[C@H]1C(=O)[C@@]2(C)[C@H]([C@H](OC(=O)c3ccccc3)[C@]3(O)C[C@H](OC(=O)[C@H](O)[C@@H](NC(=O)c4ccccc4)c4ccccc4)C(C)=C1C3(C)C)[C@]1(OC(C)=O)CO[C@@H]1C[C@@H]2O [PACLITAXEL] |  |  |  | > 10 | > 10 |  |  |  |  |  |  | 
CC(=O)OC[C@@]1(C)[C@@H]2CC[C@]3(C)[C@H](CC=C4[C@@H]5CC(C)(C)CC[C@]5(C(=O)OCCCCCCO[N+](=O)[O-])CC[C@]43C)[C@@]2(C)CC[C@@H]1OC(C)=O | 4.7 | 5.1 | 4.8 | 4.9 | 4.6 | Active |  |  |  |  |  | 
CC1(C)CC[C@]2(C(=O)OCCO[N+](=O)[O-])CC[C@]3(C)C(=CC[C@@H]4[C@@]5(C)CC[C@H](O)C(C)(C)[C@@H]5CC[C@]43C)[C@@H]2C1 | 4.7 | 5.5 | 5 | 6.4 | 5.5 | Active | > 10 | > 10 | 0.11 | > 20 | 0.03 | 
C=CC(=O)O[C@H]1CC[C@]2(C)[C@H]3CC=C4[C@@H]5CC(C)(C)CC[C@]5(C(=O)OCCCCO[N+](=O)[O-])CC[C@@]4(C)[C@]3(C)CC[C@H]2C1(C)C | > 10 | > 10 | > 10 | > 10 | > 10 |  | > 10 | > 10 | > 20 | > 20 | > 20 | 
CC(=O)O[C@H]1CC[C@]2(C)[C@H]3CC=C4[C@@H]5CC(C)(C)CC[C@]5(C(=O)O)CC[C@@]4(C)[C@]3(C)CC[C@H]2C1(C)C [ACETYL OLEANOLIC ACID] | 5.8 | > 10 | 7.6 | 7.6 | > 10 |  |  |  |  |  |  | 
CC1(C)CC[C@]2(C(=O)OCCCCO[N+](=O)[O-])CC[C@]3(C)C(=CC[C@@H]4[C@@]5(C)CC[C@H](OC(=O)/C=C/c6ccc7c(c6)OCO7)C(C)(C)[C@@H]5CC[C@]43C)[C@@H]2C1 |  |  |  |  |  |  | > 10 | > 10 | > 20 | > 20 | > 20 | 

Source: ChEMBL document CHEMBL4414650, “Discovery of an Oleanolic Acid/Hederagenin-Nitric Oxide Donor Hybrid as an EGFR Tyrosine Kinase Inhibitor for Non-Small-Cell Lung Cancer” (J Nat Prod, 2019)
